One test has as its system stearoyl-CoA desaturase. The test is described as follows: Fatty acid composition in rats after repeated dosing. The format is in vivo. The following applies: 9 doses (2 per day), 30 mg/kg body weight, HCl salt. From the text: A highly preferred compound of the invention has the structure of Formula I, wherein R1 is H and R2 is isopentyl, X=C, n=2, m=1 and R3=2-trifluoromethylphenyl.

The target in test [1] is T1, stearoyl-CoA desaturase (SCD) (Mus musculus, UniProt P13516).
T1 construct: % Remaining SCD activity compared to DMSO control in mouse liver microsome assay; from tissue; host or cells: mouse liver microsomes
T1 sequence (P13516 1-355): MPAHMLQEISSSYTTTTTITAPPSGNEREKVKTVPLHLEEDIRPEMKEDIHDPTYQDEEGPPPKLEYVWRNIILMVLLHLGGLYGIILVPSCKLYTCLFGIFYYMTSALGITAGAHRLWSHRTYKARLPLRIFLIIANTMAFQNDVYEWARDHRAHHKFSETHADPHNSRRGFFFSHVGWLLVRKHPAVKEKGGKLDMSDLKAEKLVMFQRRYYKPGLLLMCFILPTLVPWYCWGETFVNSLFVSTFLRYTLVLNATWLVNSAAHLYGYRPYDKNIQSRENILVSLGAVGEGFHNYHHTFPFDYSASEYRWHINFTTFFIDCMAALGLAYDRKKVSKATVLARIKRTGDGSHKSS
The test is described as follows: SCD mouse liver microsome assay (tritiated stearoyl-CoA desaturation). The settings on record: for % Remaining SCD activity compared to DMSO control, average: mouse liver microsomes 100 μg, 15 min RT preincubation, 15 min RT desaturation. Format: biochemical. As for the experimental part:
The identification of compounds of the invention was readily accomplished using the SCD enzyme and microsomal assay procedure described in Brownlie et al, supra.
Briefly, mouse or human liver microsomes (induced for SCD1 expression and containing cytochrome b5 and cytochrome b5 reductase) and NADH are suspended in buffer with a test compound, and reaction is initiated by addition of 0.025 mM tritiated stearoyl-CoA. This ligand is tritiated at the C9 and C10 position only. The reaction is allowed to proceed for between 5 and 20 minutes at room temperature, whereupon it is halted by addition of acid. Activated charcoal is then added, mixed, and centrifuged to separate labeled substrate from labeled water. An aliquot of supernatant is than tested for radioactivity using liquid scintillation counting. This is taken as a measure of delta-9 desaturase activity.
The compounds and compositions of the invention were tested in mouse liver microsomes, 100 μg for 15 minutes at room temperature pre-incubation with the compound and 15 minutes at room temperature desaturation period. […] Identification numbers are the same as those indicated in FIGS. 1 and 2 showing the structures and characteristics of the compounds.
% Remaining SCD activity compared to DMSO control in mouse liver microsome assay at concentration of test compound indicated. Compounds tested in mouse liver microsomes, 100 μg, 15 min RT preincubation with compound, 15 min RT desaturation period, Large volume bench-top tube method.

Setting [2] is: Table 5, % remaining SCD activity at 0.1 μM, mouse microsome assay.
Where [3] appears, read: Table 5, % remaining SCD activity at 1 μM, mouse microsome assay.
Setting [4] is: Table 5, % remaining SCD activity at 10 μM, mouse microsome assay.

Like-named read-outs stand apart in the source and are kept apart here.

Consider 19 compounds from patent US7390813B1, “Pyridylpiperazines and aminonicotinamides and their use as therapeutic agents” (Xenon Pharmaceuticals Inc., priority 2001, dated 2008).

For the compound `CC(C)CCNC(=O)c1ccc(N2CCN(C(=O)c3ccccc3C(F)(F)F)CC2)nc1`, the “changes in fatty acid composition” value with stearoyl-CoA desaturase is “changes in fatty acid composition consistent with inhibition of SCD activity”.
Regarding `O=C(NCCc1cccc(Cl)c1)c1ccc(N2CCN(C(=O)c3ccccc3C(F)(F)F)CC2)nc1` [Compound X01], the “% Remaining SCD activity compared to DMSO control, average” value (from here on “% Remaining SCD activity”) in test [1] (0.1 uM test compound) is reported as 57.77%; in test [1] (1 uM test compound), 9.05%; in test [1] (10 uM test compound) it was 1.42%. Also, the “% Activity 0.1 μM” value in test [1] (setting [2]) was found to be 58%. Moreover, the “% Activity 1 μM” value in test [1] (setting [3]) is on record as 9.1%. Moreover, in test [1] (setting [4]), the “% Activity 10 μM” value is reported as 1.4%.
Consider `CC(C)CCNC(=O)c1ccc(N2CCN(C(=O)c3ccccc3Br)CC2)nc1` [Compound X02], for which the “% Remaining SCD activity” value stood at 25.68% in test [1] (0.1 uM test compound), 5.49% in test [1] (1 uM test compound) and 1.27% in test [1] (10 uM test compound). In addition, the “% Activity 0.1 μM” value in test [1] (setting [2]) was 26%. Also, in test [1] (setting [3]), the “% Activity 1 μM” value amounted to 5.5%. Further, the “% Activity 10 μM” value in test [1] (setting [4]) was 1.3%.
As for `O=C(NCCCc1ccccc1)c1ccc(N2CCN(C(=O)c3ccccc3C(F)(F)F)CC2)nc1` [Compound X03], the “% Remaining SCD activity” value in test [1] (0.1 uM test compound) amounted to 26.04%; in test [1] (1 uM test compound) it was 2.17%; in test [1] (10 uM test compound), 0.72%. Also, the “% of the activity inhibited” value in test [1] (10 μM concentration of the compound) is listed as more than 99%. Besides, the “% Activity 0.1 μM” value in test [1] (setting [2]) came to 26%. Moreover, in test [1] (setting [3]), the “% Activity 1 μM” value was 2.2%. Moreover, the “% Activity 10 μM” value in test [1] (setting [4]) came to 0.7%.
For `O=C(NCCc1ccccc1)c1ccc(N2CCN(C(=O)c3ccccc3Br)CC2)nc1` [Compound X04], the entries for the “% Remaining SCD activity” value in test [1] (0.1 uM test compound), in test [1] (1 uM test compound) and in test [1] (10 uM test compound) were 36.54%, 5.48% and 1.29%, respectively. For the same compound, the “% Activity 0.1 μM” value in test [1] (setting [2]) is recorded as 37%. Moreover, the “% Activity 1 μM” value in test [1] (setting [3]) amounted to 5.5%. Further, the “% Activity 10 μM” value in test [1] (setting [4]) is on record as 1.3%.
What is called IC50 is the point on the concentration scale where inhibition reaches its midpoint. On to `CC(C)CCNC(=O)c1ccc(N2CCN(C(=O)c3ccccc3C(F)(F)F)CC2)nc1` [Compound X05], for which the “% Remaining SCD activity” value worked out at 17.09% in test [1] (0.1 uM test compound), 3.05% in test [1] (1 uM test compound) and 0.81% in test [1] (10 uM test compound). In test [1] (setting [2]), this compound displayed an activity at 0.1 µM of 17%. In test [1] (setting [3]), the activity at 1 µM worked out at 3.1%. Further, in test [1] (setting [4]), the activity at 10 µM is 0.8%. The IC50 in test [1] (stated in summary text, read-out: IC50 value) is 0.032 µM.
In the case of `CCCCCNC(=O)c1ccc(N2CCN(C(=O)c3cc(Cl)ccc3Cl)CC2)nc1` [Compound X06], the “% Remaining SCD activity” value in test [1] (0.1 uM test compound) was 38.00%; in test [1] (1 uM test compound) it was 5.38%; in test [1] (10 uM test compound) it was 1.97%. Further, in test [1] (setting [2]), the “% Activity 0.1 μM” value was 38%. Further, the “% Activity 1 μM” value in test [1] (setting [3]) amounted to 5.4%. Besides, in test [1] (setting [4]), the “% Activity 10 μM” value is 2%.
`CCCCNC(=O)c1ccc(N2CCN(C(=O)c3ccccc3C(F)(F)F)CC2)nc1` [Compound X09]: the entries for the “% Remaining SCD activity” value in test [1] (0.1 uM test compound), in test [1] (1 uM test compound) and in test [1] (10 uM test compound) were 63.58%, 14.80% and 2.69%, respectively. Also, the “% Activity 0.1 μM” value in test [1] (setting [2]) was 64%. In test [1] (setting [3]), the “% Activity 1 μM” value amounted to 15%. Besides, the “% Activity 10 μM” value in test [1] (setting [4]) stood at 2.7%.
With `O=C(NCCCc1ccccc1)c1ccc(N2CCN(C(=O)c3cc(Cl)ccc3Cl)CC2)nc1` [Compound X10], the “% Remaining SCD activity” value worked out at 29.72% in test [1] (0.1 uM test compound), 3.37% in test [1] (1 uM test compound) and 1.07% in test [1] (10 uM test compound). Besides, the “% Activity 0.1 μM” value in test [1] (setting [2]) came to 30%. The “% Activity 1 μM” value in test [1] (setting [3]) is 3.4%. The “% Activity 10 μM” value in test [1] (setting [4]) was found to be 1.1%.
For the compound `CCCCCNC(=O)c1ccc(N2CCN(C(=O)c3ccccc3C(F)(F)F)CC2)nc1` [Compound X11], the entries for the “% Remaining SCD activity” value in test [1] (0.1 uM test compound), in test [1] (1 uM test compound) and in test [1] (10 uM test compound) were 25.41%, 3.67% and 1.72%, respectively. Moreover, in test [1] (setting [2]), the “% Activity 0.1 μM” value came out at 25%. Also, in test [1] (setting [3]), the “% Activity 1 μM” value is given as 3.7%. Also, the “% Activity 10 μM” value in test [1] (setting [4]) came out at 1.7%. In addition, the IC50 in test [1] (Table 5, SCD inhibition, read-out: IC50) worked out at 0.037 µM.
In the case of `O=C(NCCc1ccccc1)c1ccc(N2CCN(C(=O)c3cc(Cl)ccc3Cl)CC2)nc1` [Compound X12], the “% Remaining SCD activity” value worked out at 29.87% in test [1] (0.1 uM test compound), 3.91% in test [1] (1 uM test compound) and 1.15% in test [1] (10 uM test compound). Also, the “% Activity 0.1 μM” value in test [1] (setting [2]) is 30%. For the same compound, the “% Activity 1 μM” value in test [1] (setting [3]) came to 3.9%. The “% Activity 10 μM” value in test [1] (setting [4]) worked out at 1.2%.
With `CCCCCNC(=O)c1ccc(N2CCN(C(=O)c3ccccc3Br)CC2)nc1` [Compound X13], the “% Remaining SCD activity” value stood at 44.42% in test [1] (0.1 uM test compound), 7.77% in test [1] (1 uM test compound) and 1.75% in test [1] (10 uM test compound). Besides, in test [1] (setting [2]), the “% Activity 0.1 μM” value came out at 44%. Further, the “% Activity 1 μM” value in test [1] (setting [3]) is listed as 7.8%. The “% Activity 10 μM” value in test [1] (setting [4]) was 1.8%.
For `CC(C)CCNC(=O)c1ccc(N2CCN(C(=O)c3ccc(Cl)cc3Cl)CC2)nc1` [Compound X14], the “% Remaining SCD activity” value in test [1] (0.1 uM test compound) is reported as 38.24%; in test [1] (1 uM test compound), 7.44%; in test [1] (10 uM test compound), 1.39%. Moreover, the “% Activity 0.1 μM” value in test [1] (setting [2]) turned out to be 38%. In addition, the “% Activity 1 μM” value in test [1] (setting [3]) is given as 7.4%. Moreover, the “% Activity 10 μM” value in test [1] (setting [4]) was found to be 1.4%.
Regarding `CCCCCCNC(=O)c1ccc(N2CCN(C(=O)c3ccccc3C(F)(F)F)CC2)nc1` [Compound X15], the “% Remaining SCD activity” value amounted to 44.95% in test [1] (0.1 uM test compound), 6.46% in test [1] (1 uM test compound) and 1.22% in test [1] (10 uM test compound). Also, the “% Activity 0.1 μM” value in test [1] (setting [2]) is on record as 45%. The “% Activity 1 μM” value in test [1] (setting [3]) is 6.5%. Besides, in test [1] (setting [4]), the “% Activity 10 μM” value amounted to 1.2%.
For `CC(C)CCNC(=O)c1ccc(N2CCN(C(=O)c3cccc4ccccc34)CC2)nc1` [Compound X16], the “% Remaining SCD activity” value in test [1] (0.1 uM test compound) amounted to 31.35%; in test [1] (1 uM test compound) it was 7.01%; in test [1] (10 uM test compound) it was 2.06%. The “% Activity 0.1 μM” value in test [1] (setting [2]) is 31%. The “% Activity 1 μM” value in test [1] (setting [3]) was 7%. The “% Activity 10 μM” value in test [1] (setting [4]) worked out at 2.1%.
Take `COc1ccc(Br)c(C(=O)N2CCN(c3ccc(C(=O)NCCCc4ccccc4)cn3)CC2)c1` [Compound X17]: the figures for the “% Remaining SCD activity” value in test [1] (0.1 uM test compound), in test [1] (1 uM test compound) and in test [1] (10 uM test compound) were 61.74%, 10.59% and 1.01%, respectively. Also, the “% Activity 10 μM” value in test [1] (setting [4]) was found to be 1.01%.
On to `Cc1ccsc1C(=O)N1CCN(c2ccc(C(=O)NCCc3cccc(Cl)c3)cn2)CC1` [Compound X18], for which the entries for the “% Remaining SCD activity” value in test [1] (0.1 uM test compound), in test [1] (1 uM test compound) and in test [1] (10 uM test compound) were 86.33%, 32.64% and 3.41%, respectively. Moreover, the “% Activity 10 μM” value in test [1] (setting [4]) is 3.41%.
For the compound `CCCCNC(=O)c1ccc(N2CCN(C(=O)c3ccccc3Br)CC2)nc1` [Compound X19], the “% Remaining SCD activity” value in test [1] (0.1 uM test compound) turned out to be 75.14%; in test [1] (1 uM test compound) it was 18.59%; in test [1] (10 uM test compound), 3.57%. In test [1] (setting [4]), the “% Activity 10 μM” value stood at 3.57%.
Take `Cc1ccccc1CC(=O)N1CCN(c2ccc(C(=O)NCCC(C)C)cn2)CC1` [Compound X21]: the “% Remaining SCD activity” value in test [1] (0.1 uM test compound) is 74.82%; in test [1] (1 uM test compound), 33.28%; in test [1] (10 uM test compound), 3.94%. Moreover, the “% Activity 10 μM” value in test [1] (setting [4]) stood at 3.94%.
